What all share (assay): Kinase activity test (ReactionBiology), % enzyme activity relative to DMSO
What all share (format): biochemical

The target in one experiment is T1, DAPK1 (Homo sapiens, UniProt P53355).
T1 construct: purchased ReactionBiology
The conditions noted are these: DAPK1; for % Enzyme Activity (relative to DMSO controls), Data 1: replicate Data 1; for % Enzyme Activity (relative to DMSO controls), Data 2: replicate Data 2.

The target in a further experiment is VEGFR2 (Homo sapiens, UniProt P35968). On the set-up: purchased ReactionBiology. To be noted: VEGFR2; for % Enzyme Activity (relative to DMSO controls), Data 1: replicate Data 1; for % Enzyme Activity (relative to DMSO controls), Data 2: replicate Data 2.
A further experiment concerns the target T2, CK1d (Homo sapiens, UniProt P48730).
T2 construct: purchased ReactionBiology
To be noted: CK1d; for % Enzyme Activity (relative to DMSO controls), Data 1: replicate Data 1; for % Enzyme Activity (relative to DMSO controls), Data 2: replicate Data 2.

T1 sequence (P53355 whole entry): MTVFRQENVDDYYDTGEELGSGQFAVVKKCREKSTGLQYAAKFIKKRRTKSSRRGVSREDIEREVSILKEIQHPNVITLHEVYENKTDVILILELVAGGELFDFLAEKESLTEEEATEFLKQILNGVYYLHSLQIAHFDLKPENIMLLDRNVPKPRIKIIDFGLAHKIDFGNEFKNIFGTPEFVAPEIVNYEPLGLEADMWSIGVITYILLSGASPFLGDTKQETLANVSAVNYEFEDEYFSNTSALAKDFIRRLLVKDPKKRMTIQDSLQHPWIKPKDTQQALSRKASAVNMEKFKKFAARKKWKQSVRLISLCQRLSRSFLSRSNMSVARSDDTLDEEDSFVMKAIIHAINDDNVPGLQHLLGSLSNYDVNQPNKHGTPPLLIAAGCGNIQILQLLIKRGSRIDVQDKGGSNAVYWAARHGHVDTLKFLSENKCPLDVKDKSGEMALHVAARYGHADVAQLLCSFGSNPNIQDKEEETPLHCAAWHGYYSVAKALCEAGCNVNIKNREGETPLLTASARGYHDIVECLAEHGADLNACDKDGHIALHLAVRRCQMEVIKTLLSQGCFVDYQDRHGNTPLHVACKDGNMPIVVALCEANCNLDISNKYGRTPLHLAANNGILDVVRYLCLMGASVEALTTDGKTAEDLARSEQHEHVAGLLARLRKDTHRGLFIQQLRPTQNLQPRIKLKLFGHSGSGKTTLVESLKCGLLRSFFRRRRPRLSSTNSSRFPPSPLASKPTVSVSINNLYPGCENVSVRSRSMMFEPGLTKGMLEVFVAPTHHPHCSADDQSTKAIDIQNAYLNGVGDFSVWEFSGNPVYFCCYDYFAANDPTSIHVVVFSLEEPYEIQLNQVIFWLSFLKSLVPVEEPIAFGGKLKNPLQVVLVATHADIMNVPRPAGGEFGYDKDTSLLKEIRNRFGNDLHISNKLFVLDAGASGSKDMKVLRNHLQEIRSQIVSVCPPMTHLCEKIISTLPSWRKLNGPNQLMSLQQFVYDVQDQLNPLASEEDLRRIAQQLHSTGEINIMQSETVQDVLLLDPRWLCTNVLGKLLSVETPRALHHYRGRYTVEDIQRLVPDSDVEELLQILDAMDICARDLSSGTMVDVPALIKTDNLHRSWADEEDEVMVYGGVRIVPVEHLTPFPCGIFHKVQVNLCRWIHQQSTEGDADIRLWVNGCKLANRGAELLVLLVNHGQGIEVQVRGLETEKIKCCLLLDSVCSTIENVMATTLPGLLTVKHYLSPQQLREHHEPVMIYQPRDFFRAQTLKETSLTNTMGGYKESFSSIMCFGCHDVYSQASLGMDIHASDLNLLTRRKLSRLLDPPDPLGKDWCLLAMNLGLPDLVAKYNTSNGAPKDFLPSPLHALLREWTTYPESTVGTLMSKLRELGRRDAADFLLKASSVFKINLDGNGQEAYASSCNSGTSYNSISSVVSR
T2 sequence (P48730 whole entry): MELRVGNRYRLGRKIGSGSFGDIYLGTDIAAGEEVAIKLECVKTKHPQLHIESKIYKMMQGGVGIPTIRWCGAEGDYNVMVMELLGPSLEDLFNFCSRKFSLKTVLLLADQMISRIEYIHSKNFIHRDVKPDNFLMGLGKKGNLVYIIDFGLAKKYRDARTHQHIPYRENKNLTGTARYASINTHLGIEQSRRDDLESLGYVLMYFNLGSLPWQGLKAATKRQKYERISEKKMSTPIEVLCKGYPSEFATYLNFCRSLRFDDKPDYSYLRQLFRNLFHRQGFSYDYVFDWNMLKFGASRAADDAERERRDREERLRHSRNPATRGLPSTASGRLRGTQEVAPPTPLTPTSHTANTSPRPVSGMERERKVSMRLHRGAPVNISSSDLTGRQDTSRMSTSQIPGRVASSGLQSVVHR
Sequence of VEGFR2 (P35968 20-1356): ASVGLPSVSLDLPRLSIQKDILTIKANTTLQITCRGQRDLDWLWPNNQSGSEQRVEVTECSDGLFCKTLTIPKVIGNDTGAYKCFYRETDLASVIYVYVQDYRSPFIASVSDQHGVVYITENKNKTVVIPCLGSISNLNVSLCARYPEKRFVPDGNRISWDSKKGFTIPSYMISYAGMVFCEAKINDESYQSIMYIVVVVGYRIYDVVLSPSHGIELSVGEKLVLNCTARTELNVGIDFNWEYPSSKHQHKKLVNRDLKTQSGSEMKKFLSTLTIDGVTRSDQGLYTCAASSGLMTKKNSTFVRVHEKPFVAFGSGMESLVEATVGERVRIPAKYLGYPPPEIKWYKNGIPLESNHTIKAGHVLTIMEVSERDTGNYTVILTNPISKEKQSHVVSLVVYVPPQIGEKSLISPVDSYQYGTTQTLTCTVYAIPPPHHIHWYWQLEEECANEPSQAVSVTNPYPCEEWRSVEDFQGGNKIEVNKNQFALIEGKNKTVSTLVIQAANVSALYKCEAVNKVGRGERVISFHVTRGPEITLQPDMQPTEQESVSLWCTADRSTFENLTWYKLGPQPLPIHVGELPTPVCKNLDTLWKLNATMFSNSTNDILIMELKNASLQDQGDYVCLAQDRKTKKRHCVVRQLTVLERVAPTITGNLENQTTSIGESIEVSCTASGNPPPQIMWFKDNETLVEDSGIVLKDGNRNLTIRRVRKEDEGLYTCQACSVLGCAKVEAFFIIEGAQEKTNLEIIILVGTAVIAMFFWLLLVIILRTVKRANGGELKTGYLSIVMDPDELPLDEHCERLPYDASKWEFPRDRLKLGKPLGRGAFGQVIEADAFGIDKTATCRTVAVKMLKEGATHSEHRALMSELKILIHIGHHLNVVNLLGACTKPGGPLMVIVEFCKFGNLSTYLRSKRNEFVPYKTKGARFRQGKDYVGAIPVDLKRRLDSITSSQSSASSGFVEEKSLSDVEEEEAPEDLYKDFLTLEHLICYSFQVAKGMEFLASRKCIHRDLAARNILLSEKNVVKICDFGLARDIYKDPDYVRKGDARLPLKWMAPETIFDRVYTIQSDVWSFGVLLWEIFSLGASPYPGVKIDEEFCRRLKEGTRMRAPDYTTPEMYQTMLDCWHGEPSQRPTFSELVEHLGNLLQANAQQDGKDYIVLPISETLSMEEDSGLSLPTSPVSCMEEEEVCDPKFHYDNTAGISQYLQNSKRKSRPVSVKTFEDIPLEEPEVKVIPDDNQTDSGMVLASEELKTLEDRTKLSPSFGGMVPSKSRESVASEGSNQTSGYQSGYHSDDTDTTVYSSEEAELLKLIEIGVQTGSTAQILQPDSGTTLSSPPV

As to `COC(=O)N[C@H](C(=O)N[C@@H](Cc1ccccc1)[C@@H](O)CN(Cc1ccc(-c2ccccn2)cc1)NC(=O)[C@@H](NC(=O)OC)C(C)(C)C)C(C)(C)C` [Atazanavir], at DAPK1 (1 uM), the “% Enzyme Activity (relative to DMSO controls), Average” value worked out at 98.48%; the “% Enzyme Activity (relative to DMSO controls), Data 1” value is listed as 95.12%; the “% Enzyme Activity (relative to DMSO controls), Data 2” value came out at 101.84%. Also, on DAPK1 (10 uM), the “% Enzyme Activity (relative to DMSO controls), Average” value turned out to be 74.66%; the “% Enzyme Activity (relative to DMSO controls), Data 1” value is given as 73.05%; the “% Enzyme Activity (relative to DMSO controls), Data 2” value is on record as 76.27%.

Turning to `O=C1C(O)=C([C@H]2CC[C@H](c3ccc(Cl)cc3)CC2)C(=O)c2ccccc21` [Atovaquone], at DAPK1 (1 uM), the “% Enzyme Activity (relative to DMSO controls), Average” value is given as 96.25%; the “% Enzyme Activity (relative to DMSO controls), Data 1” value is 96.85%; the “% Enzyme Activity (relative to DMSO controls), Data 2” value was determined as 95.64%. Also, at DAPK1 (10 uM), the “% Enzyme Activity (relative to DMSO controls), Average” value turned out to be 91.80%; the “% Enzyme Activity (relative to DMSO controls), Data 1” value was 90.59%; the “% Enzyme Activity (relative to DMSO controls), Data 2” value came out at 93%.

On to `OC(Cn1cncn1)(Cn1cncn1)c1ccc(F)cc1F` [Fluconazole], for which, at DAPK1 (1 uM), the “% Enzyme Activity (relative to DMSO controls), Average” value worked out at 100.65%; the “% Enzyme Activity (relative to DMSO controls), Data 1” value is recorded as 103.85%; the “% Enzyme Activity (relative to DMSO controls), Data 2” value was 97.44%. On DAPK1 (10 uM), the “% Enzyme Activity (relative to DMSO controls), Average” value came to 95.87%; the “% Enzyme Activity (relative to DMSO controls), Data 1” value was found to be 97.86%; the “% Enzyme Activity (relative to DMSO controls), Data 2” value is 93.87%.

`O=c1[nH]cc(F)c(=O)[nH]1` [Fluorouracil]: the “% Enzyme Activity (relative to DMSO controls), Average” value is on record as 113.72% on VEGFR2 (1 uM), 105.92% at VEGFR2 (10 uM), 104.91% on CK1d (1 uM) and 106.01% on CK1d (10 uM). The “% Enzyme Activity (relative to DMSO controls), Data 1” value worked out at 118.24% on VEGFR2 (1 uM), 109.47% at VEGFR2 (10 uM), 106.12% on CK1d (1 uM) and 110.21% on CK1d (10 uM). Also, the “% Enzyme Activity (relative to DMSO controls), Data 2” value on VEGFR2 (1 uM) is 109.2%; at VEGFR2 (10 uM), 102.36%; on CK1d (1 uM), 103.69%; at CK1d (10 uM), 101.8%.

For `C[C@@H]1O[C@@H]1P(=O)(O)O` [Fosfomycin], at DAPK1 (1 uM), the “% Enzyme Activity (relative to DMSO controls), Average” value worked out at 101.25%; the “% Enzyme Activity (relative to DMSO controls), Data 1” value worked out at 100.97%; the “% Enzyme Activity (relative to DMSO controls), Data 2” value was 101.52%. Moreover, on DAPK1 (10 uM), the “% Enzyme Activity (relative to DMSO controls), Average” value came to 92.74%; the “% Enzyme Activity (relative to DMSO controls), Data 1” value is listed as 95%; the “% Enzyme Activity (relative to DMSO controls), Data 2” value is recorded as 90.48%.

On to `COc1ccc2c(c1)c(CC(=O)O)c(C)n2C(=O)c1ccc(Cl)cc1` [Iomethacin], for which the “% Enzyme Activity (relative to DMSO controls), Average” value on VEGFR2 (1 uM) is reported as 105.43%; at VEGFR2 (10 uM), 102.46%; on CK1d (1 uM), 102.15%; at CK1d (10 uM), 95.39%. Further, the “% Enzyme Activity (relative to DMSO controls), Data 1” value came out at 105.61% at VEGFR2 (1 uM), 106.14% on VEGFR2 (10 uM), 102.08% at CK1d (1 uM) and 98.78% on CK1d (10 uM). Also, the “% Enzyme Activity (relative to DMSO controls), Data 2” value at VEGFR2 (1 uM) is 105.25%; on VEGFR2 (10 uM), 98.78%; at CK1d (1 uM) it was 102.21%; on CK1d (10 uM), 92%.

Take `Cc1ccnc2c1NC(=O)c1cccnc1N2C1CC1` [Nevirapine]: on DAPK1 (1 uM), the “% Enzyme Activity (relative to DMSO controls), Average” value was 112.57%; the “% Enzyme Activity (relative to DMSO controls), Data 1” value amounted to 101.89%; the “% Enzyme Activity (relative to DMSO controls), Data 2” value was determined as 123.25%. In addition, at DAPK1 (10 uM), the “% Enzyme Activity (relative to DMSO controls), Average” value is given as 95.31%; the “% Enzyme Activity (relative to DMSO controls), Data 1” value amounted to 95.47%; the “% Enzyme Activity (relative to DMSO controls), Data 2” value was 95.14%.

On to `NC[C@H](O)c1ccc(O)c(O)c1` [Norepinephrine], for which, on DAPK1 (1 uM), the “% Enzyme Activity (relative to DMSO controls), Average” value is on record as 102.77%; the “% Enzyme Activity (relative to DMSO controls), Data 1” value worked out at 101.72%; the “% Enzyme Activity (relative to DMSO controls), Data 2” value stood at 103.82%. In addition, on DAPK1 (10 uM), the “% Enzyme Activity (relative to DMSO controls), Average” value stood at 92.90%; the “% Enzyme Activity (relative to DMSO controls), Data 1” value came to 93.2%; the “% Enzyme Activity (relative to DMSO controls), Data 2” value is 92.59%.

Turning to `C=C[C@H]1CN2CC[C@H]1C[C@@H]2[C@@H](O)c1ccnc2ccc(OC)cc12` [Quinidine], on DAPK1 (1 uM), the “% Enzyme Activity (relative to DMSO controls), Average” value was determined as 102.25%; the “% Enzyme Activity (relative to DMSO controls), Data 1” value was 101.97%; the “% Enzyme Activity (relative to DMSO controls), Data 2” value stood at 102.52%. For the same compound, at DAPK1 (10 uM), the “% Enzyme Activity (relative to DMSO controls), Average” value is recorded as 96.54%; the “% Enzyme Activity (relative to DMSO controls), Data 1” value is 95.41%; the “% Enzyme Activity (relative to DMSO controls), Data 2” value is reported as 97.67%.

As for `CN[C@H]1CC[C@@H](c2ccc(Cl)c(Cl)c2)c2ccccc21` [Sertraline], the “% Enzyme Activity (relative to DMSO controls), Average” value at VEGFR2 (1 uM) worked out at 106.32%; on VEGFR2 (10 uM) it was 105.91%; on CK1d (1 uM) it was 106.53%; at CK1d (10 uM) it was 163.39%. In addition, the “% Enzyme Activity (relative to DMSO controls), Data 1” value is on record as 107.12% on VEGFR2 (1 uM), 107.3% at VEGFR2 (10 uM), 105.95% at CK1d (1 uM) and 106.22% at CK1d (10 uM). The “% Enzyme Activity (relative to DMSO controls), Data 2” value at VEGFR2 (1 uM) amounted to 105.51%; at VEGFR2 (10 uM), 104.52%; at CK1d (1 uM) it was 107.11%; on CK1d (10 uM), 220.55%.

For the compound `CN1CC(=O)N2[C@H](c3ccc4c(c3)OCO4)c3[nH]c4ccccc4c3C[C@@H]2C1=O` [Tadalafil], the “% Enzyme Activity (relative to DMSO controls), Average” value at VEGFR2 (1 uM) was found to be 102.42%; on VEGFR2 (10 uM) it was 97.95%; at CK1d (1 uM), 103.78%; on CK1d (10 uM) it was 108.37%. Also, the “% Enzyme Activity (relative to DMSO controls), Data 1” value is reported as 103.18% at VEGFR2 (1 uM), 98.92% at VEGFR2 (10 uM), 105.89% at CK1d (1 uM) and 107.23% on CK1d (10 uM). In addition, the “% Enzyme Activity (relative to DMSO controls), Data 2” value is reported as 101.65% on VEGFR2 (1 uM), 96.97% on VEGFR2 (10 uM), 101.67% at CK1d (1 uM) and 109.5% at CK1d (10 uM).

Take `Cn1c(=O)c2[nH]cnc2n(C)c1=O` [Theophylline]: on DAPK1 (1 uM), the “% Enzyme Activity (relative to DMSO controls), Average” value worked out at 109.44%; the “% Enzyme Activity (relative to DMSO controls), Data 1” value was found to be 109.64%; the “% Enzyme Activity (relative to DMSO controls), Data 2” value is 109.23%. On DAPK1 (10 uM), the “% Enzyme Activity (relative to DMSO controls), Average” value is given as 98.91%; the “% Enzyme Activity (relative to DMSO controls), Data 1” value came to 100.03%; the “% Enzyme Activity (relative to DMSO controls), Data 2” value is 97.79%.

The values above are taken from article PMC7252619 (PLoS ONE, 2020).
